This passage reports TGI results from PubChem BioAssay (NCI).

Some test systems named below: MOLT-4 leukemia; TK-10 renal; DU-145 prostate; U251 CNS; UO-31 renal; SW-620 colon; SK-MEL-2 melanoma; NCI-H226 lung; SK-MEL-28 melanoma; SF-539 CNS.
Experiment in all cases: NCI anticancer screen, dose series, 48 h

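96-well plates; 48 h exposure; 5 concentrations. Endpoints by linear interpolation between flanking doses. Not reached: highest tested concentration assigned. Definition used: TGI = concentration required for complete inhibition of growth.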

For `CC(=O)/C(=N\Nc1ccc(Cl)cc1)C(C)=Nc1ccc(C)cc1`, the TGI in the experiment on MOLT-4 leukemia, in the experiment on TK-10 renal, with DU-145 prostate, in the experiment with U251 CNS, with UO-31 renal and with SW-620 colon was more than 100 µM in each case. For the same molecule, the TGI with SK-MEL-2 melanoma is 40 µM; in the experiment on NCI-H226 lung it was 83.7 µM; in the experiment on SK-MEL-28 melanoma, more than 100 µM.

For `Cc1cc(-c2ccccc2)nc2oc(=O)n(C)c12`, the TGI in the experiment with MOLT-4 leukemia, in the experiment on TK-10 renal, in the experiment on DU-145 prostate, in the experiment with U251 CNS, with UO-31 renal and in the experiment on SW-620 colon was more than 100 µM in each case. For the same molecule, the TGI with SK-MEL-2 melanoma, with NCI-H226 lung and with SK-MEL-28 melanoma was more than 100 µM each time.

Consider `O=c1c2ccc(Cl)cc2oc2c(CNc3ccc(S(=O)(=O)Nc4ncccn4)cc3)cccc12`, for which the TGI in the experiment on MOLT-4 leukemia, in the experiment with TK-10 renal, in the experiment with U251 CNS, with UO-31 renal, in the experiment with SW-620 colon and with SF-539 CNS was more than 100 µM each time. Further, the TGI with SK-MEL-2 melanoma, in the experiment on NCI-H226 lung and in the experiment with SK-MEL-28 melanoma was more than 100 µM in each case.

For the molecule `CC[C@]12C=CCN3CCC4(c5cc([C@@]6(C(=O)OC)CC7CN(CCc8c6[nH]c6ccccc86)CC6CCCCC67)c(OC)cc5N(C)C4[C@](O)(C(=O)OC)C1OC(C)=O)[C@@H]32` (stereo not given in full), the TGI with TK-10 renal is 18.7 µM; in the experiment on DU-145 prostate it was 14.2 µM; in the experiment on U251 CNS, less than 0.01 µM; with UO-31 renal it was 7.31 µM; with SW-620 colon, 15.6 µM; with SF-539 CNS, less than 0.01 µM. Besides, the figures for the TGI in the experiment with SK-MEL-2 melanoma and with NCI-H226 lung were 0.145 µM and 2.42 µM, respectively.

Take `CC(C)=CCc1c(O)cc2oc(-c3ccc(O)cc3O)cc(=O)c2c1O`: the TGI in the experiment with TK-10 renal is 69.7 µM; in the experiment on DU-145 prostate, more than 84.8 µM; with U251 CNS, more than 100 µM; with UO-31 renal, 93.9 µM; in the experiment with SW-620 colon, more than 100 µM; in the experiment on SF-539 CNS, 58.7 µM. Besides, the TGI with SK-MEL-2 melanoma was 64.7 µM; with NCI-H226 lung it was more than 100 µM; in the experiment with SK-MEL-28 melanoma, 87.8 µM.

Regarding `Nc1c(N2CCOCC2)c(=O)nc2[nH]/c(=C\c3ccccc3O)c(=O)n12`, the TGI with MOLT-4 leukemia, with TK-10 renal, in the experiment on DU-145 prostate, with U251 CNS, in the experiment on UO-31 renal and in the experiment on SW-620 colon was more than 100 µM in each case. The TGI with SF-539 CNS, with NCI-H226 lung and in the experiment with SK-MEL-28 melanoma was more than 100 µM in each case.

Take `CN(C)CCCNC(=O)N/N=C/c1ccccc1`: the TGI in the experiment on MOLT-4 leukemia, in the experiment with TK-10 renal, with U251 CNS, in the experiment with UO-31 renal, in the experiment with SW-620 colon and with SF-539 CNS was more than 100 µM throughout. For the same molecule, the TGI in the experiment on SK-MEL-2 melanoma, in the experiment on NCI-H226 lung and in the experiment on SK-MEL-28 melanoma was more than 100 µM in each case.

For the molecule `CCC1(CC)C(=O)N(C(=O)c2cc(OC)c(OC)c(OC)c2)N(C(=O)c2cc(OC)c(OC)c(OC)c2)C1=O`, the TGI in the experiment with TK-10 renal, in the experiment on DU-145 prostate, in the experiment on U251 CNS, with UO-31 renal, in the experiment with SW-620 colon and with SF-539 CNS was more than 50 µM each time. The TGI in the experiment with SK-MEL-2 melanoma, in the experiment on NCI-H226 lung and in the experiment with SK-MEL-28 melanoma was more than 50 µM throughout.

`OC(CC(O)(C(F)(F)Cl)C(F)(F)Cl)c1ccccc1` (stereo not given): the TGI in the experiment with MOLT-4 leukemia, in the experiment with TK-10 renal, in the experiment with DU-145 prostate, in the experiment on U251 CNS, in the experiment with SW-620 colon and in the experiment on SF-539 CNS was more than 10 µM in each case. The TGI in the experiment on SK-MEL-2 melanoma, in the experiment on NCI-H226 lung and in the experiment with SK-MEL-28 melanoma was more than 10 µM each time.

With `O=c1c2c3c(sc2nc2n1N=C(c1ccc(Br)cc1)CS2)CCCC3`, the TGI in the experiment on MOLT-4 leukemia, in the experiment on TK-10 renal, in the experiment with DU-145 prostate, in the experiment with U251 CNS, in the experiment with UO-31 renal and in the experiment with SW-620 colon was more than 100 µM in each case. In addition, the TGI in the experiment with SF-539 CNS, in the experiment with NCI-H226 lung and with SK-MEL-28 melanoma was more than 100 µM throughout.

For the molecule `CCOC(=O)c1c(-c2ccccc2)c(OC)cn1C`, the TGI with MOLT-4 leukemia, in the experiment on TK-10 renal, in the experiment with DU-145 prostate, in the experiment with U251 CNS, in the experiment with SW-620 colon and in the experiment on SF-539 CNS was more than 10 µM throughout. Further, the TGI in the experiment on SK-MEL-2 melanoma, with NCI-H226 lung and in the experiment with SK-MEL-28 melanoma was more than 10 µM each time.

On to `O=C(NC(C(F)(F)F)(C(F)(F)F)P(=O)(Cc1ccccc1)Cc1ccccc1)C(C(F)(F)F)C(F)(F)F`, for which the TGI with MOLT-4 leukemia is 55.1 µM; in the experiment on TK-10 renal it was 39.1 µM; in the experiment with DU-145 prostate it was more than 100 µM; in the experiment on U251 CNS, 41.5 µM; in the experiment with SW-620 colon, 92.7 µM; in the experiment on SF-539 CNS, 43.6 µM. The TGI with SK-MEL-2 melanoma worked out at 59.1 µM; in the experiment with NCI-H226 lung it was 32.4 µM; in the experiment with SK-MEL-28 melanoma it was 53.1 µM.

Take `CCOC(=O)c1c(SCc2cc(=O)[nH]c(=O)[nH]2)n(-c2ccccc2)c(=S)n(-c2ccccc2)c1=O`: the TGI with MOLT-4 leukemia, with TK-10 renal, in the experiment with DU-145 prostate, with U251 CNS, in the experiment on UO-31 renal and in the experiment with SW-620 colon was more than 100 µM each time. Besides, the TGI with SF-539 CNS, in the experiment on SK-MEL-2 melanoma and in the experiment with SK-MEL-28 melanoma was more than 100 µM each time.

`CN1c2ccccc2C2=C(c3ccccc3)CC[C@@H](C(=O)N3C4CC5CC[C@@]4(CS3(=O)=O)C5(C)C)[C@@H]21` (stereo not given in full): the TGI in the experiment with MOLT-4 leukemia, in the experiment with TK-10 renal, in the experiment with DU-145 prostate, in the experiment on U251 CNS, with UO-31 renal and in the experiment on SW-620 colon was more than 100 µM in each case. Also, the TGI in the experiment on SF-539 CNS, in the experiment on NCI-H226 lung and in the experiment with SK-MEL-28 melanoma was more than 100 µM throughout.
